From patent publication US20220387432A1 (priority 2019, published 2022)

Legend:
[1] = tested on: PrP^Sc-induced synaptotoxicity on hippocampal neurons; experiment: cells; assay type: cell-based, mice
[2] = tested on: PrP^Sc-induced synaptotoxicity on hippocampal neurons; conditions: cited from earlier work
[3] = tested on: amyloid β-derived diffusible ligand (ADDL) induced synaptotoxicity; conditions: cited from earlier work
CKIδ = CKIδ (Homo sapiens, UniProt P48730); conditions: Verkaar et al. (2011); cited from earlier work
CKIε = CKIε (Homo sapiens, UniProt P49674); conditions: Verkaar et al. (2011); cited from earlier work
[4] = tested on: PrP^Sc-induced synaptotoxicity on hippocampal neurons; assay type: cell-based, mice

Sequence of CKIδ (P48730 whole entry, species assumed): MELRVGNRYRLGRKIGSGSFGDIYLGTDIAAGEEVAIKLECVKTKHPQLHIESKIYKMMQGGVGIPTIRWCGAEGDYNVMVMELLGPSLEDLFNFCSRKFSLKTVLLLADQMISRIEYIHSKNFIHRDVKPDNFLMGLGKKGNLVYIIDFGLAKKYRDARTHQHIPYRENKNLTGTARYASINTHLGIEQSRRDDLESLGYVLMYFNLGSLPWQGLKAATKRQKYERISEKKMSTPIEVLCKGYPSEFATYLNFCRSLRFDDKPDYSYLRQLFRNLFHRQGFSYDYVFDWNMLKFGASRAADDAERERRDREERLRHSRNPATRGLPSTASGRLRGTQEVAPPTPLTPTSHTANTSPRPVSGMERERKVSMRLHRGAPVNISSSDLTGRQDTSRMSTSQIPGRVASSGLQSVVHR
Sequence of CKIε (P49674 whole entry, species assumed): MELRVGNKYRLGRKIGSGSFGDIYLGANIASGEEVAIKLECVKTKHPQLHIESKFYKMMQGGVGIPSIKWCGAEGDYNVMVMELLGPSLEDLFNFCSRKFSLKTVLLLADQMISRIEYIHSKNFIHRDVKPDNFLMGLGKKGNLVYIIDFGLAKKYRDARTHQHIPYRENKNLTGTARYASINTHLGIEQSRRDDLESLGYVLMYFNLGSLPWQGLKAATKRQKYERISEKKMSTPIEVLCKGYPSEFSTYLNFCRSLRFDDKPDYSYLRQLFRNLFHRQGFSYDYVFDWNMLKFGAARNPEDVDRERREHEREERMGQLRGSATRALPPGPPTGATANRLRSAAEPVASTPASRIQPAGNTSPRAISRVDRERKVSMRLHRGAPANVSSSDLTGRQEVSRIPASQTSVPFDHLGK

SMILES | Effect on spine retraction caused by PrP^Sc [1] | Reversal of dendritic spine retraction accrued during first 24 hrs of PrP^Sc treatment [1] | Effect on PrP^Sc-induced retraction of dendritic spines / synaptotoxicity [2] | Effect against ADDL induced synaptotoxicity [3] | Effect on Aβ oligomer induced dendritic spine retraction / loss [3] | Inhibition of casein kinase isoform CKIδ (CKIδ) | Inhibition of casein kinase isoform CKIε (CKIε) | Dose dependence of effect on PrP^Sc-induced spine loss [1] | Effect on PrP^Sc effects on dendritic spine number [1] | EC50 ([1]; Mus musculus, Hippocampal neuron, 24 h, read-out: EC50 of dose response curve for the rescuing effect on spine number) [µM] | Effect on PrP^Sc effects on mEPSC properties (frequency and amplitude) [4]
COc1nccc(-c2c(-c3ccc(F)cc3)ncn2C2CCC(O)CC2)n1 (centres unmarked) [SB239063] | prevented spine retraction | able to reverse the dendritic spine retraction | blocked | ineffective | no significant effect | reported to inhibit | reported to inhibit | – | – | – | –
O=c1ncn2nc(Sc3ccc(F)cc3F)ccc2c1-c1c(Cl)cccc1Cl [neflamapimod] | – | – | – | showed positive effects | – | – | – | dose dependent | blocked | 0.0289 | blocked
Cc1cccc(C#Cc2ccccc2)n1 [MPEP] | – | – | had no influence | – | blocked | – | – | – | – | – | –
